Data reported in patent US5674909A, “Derivatives of 2-amino-1,2,3,4-tetrahydronaphthalene active on the cardiovascular system” (Zambon Group, priority 1994, dated 1997).
Counter-ions that a name gives are not always drawn.

Experiments:
[1] = biological target: T1, D2 -like (Rabbit Ear Artery) (Oryctolagus cuniculus, UniProt G1T1Q0); assay: D2-like activity in the Rabbit Ear Artery (REA) test; design: species or system New Zealand rabbit; settings: agonist activity at the peak of the effect; electrically stimulated
T1 construct: the central ear artery was dissected into 3 mm long rings; from tissue; host or cells: rabbit central ear artery rings (male New Zealand rabbits), electrically stimulated
Method: Arterial rings were prepared according to the method described by Steinsland et al., Science, 1978, 443, 199, modified as follows. Male New Zealand rabbits weighing 2.5-3 Kg were sacrificed by intravenous injection of an excess of pentobarbital sodium and exsanguinated. The two ears were taken away and the central ear artery was dissected into 3 mm long rings.
These preparations were set up in a 25 ml organ bath containing Krebs solution (mM/l): NaCl 118, KCl 4.7, CaCl2 2.5, MgSO4 1.2, NaHCO3 25, KH2 PO4 1.2, glucose 11.1, equilibrated with 95% 02 -5% CO2 and maintained at 35°±1° C.
Krebs solution was medicated with EDTA (10 μM) to prevent cathecolamine oxydation, desipramine (0.1 μM) and corticosterone (30 μM), to block neuronal and extraneuronal cathecolamine uptake. The preparations were electrically stimulated (10 Hz, 1 msec, 40-80 mA, 500 msec duration) at 5 minutes intervals.
(§1) The tested compounds were cumulatively administered.
(§2) Ref. A was used as reference substance.
(§3) Agonist activity evaluated at the peak of the effect and expressed as potency ratio (EC50 of Ref. A/EC50 of tested compound) is reported in table 2.

[2] = tested on: D1 -like (Rabbit Splenic Artery); assay: D1-like activity in the Rabbit Splenic Artery (RSA) test; settings: agonist activity at the peak of the effect; contracted with U46619 0.1 μM
Method: Arterial rings were prepared according to Semeraro et al., Naunyn. Schmied. Arch. Pharmacol., 1990, 342, 539.
The arterial preparations were contracted with U46619 (9,11-di-deoxy-11α,9α-epoxy-methanoprostaglandin F2α) at the submaximal concentration 0.1 μM.
as §1, §2, §3

D1 receptor = D1 receptor (Rattus norvegicus, UniProt P18901); assay: biochemical; format: binding, rat (Sprague-Dawley); settings: [3H]-SCH23390 0.2 nM, rat striated membranes, pH 7.4, 37° C., 20 minutes; read-out: Affinity [K1 (nM)] towards D1 receptor
Method: (§4) The tissue were homogenized in 50 mM Tris/HCl buffer at pH 7.4 (1:100 w/v).
(§5) The homogenate was centrifuged and the pellet resuspended, recentrifuged and resuspended again in 50 mM Tris/HCl buffer at pH 7.4 containing 120 mM NaCl, 5 mM KCl, 2 mM CaCl2 and 1 mM MgCl2.
The mixture was incubated with different concentrations of the tested compounds at 37° C. for 20 minutes, filtered under vacuum through Whatman GF/C filters and then washed 4 times with 5 ml of 50 mM Tris/HCl buffer (pH 7.4) cooled with ice.

D2 receptor = D2 receptor (Rattus norvegicus, UniProt P61169); assay: biochemical; format: binding, rat (Sprague-Dawley); settings: [3H]-domperidone 0.3 nM, rat striated membranes, 0.01% BSA, 37° C., 30 minutes; read-out: Affinity [K1 (nM)] towards D2 receptor
Method: as §4, §5
Furthermore, bovine serum albumine (BSA) (0.01%) was added.
The mixture was incubated at 37° C. for 30 minutes for each concentration of tested compounds.

T1 sequence (G1T1Q0 1-443): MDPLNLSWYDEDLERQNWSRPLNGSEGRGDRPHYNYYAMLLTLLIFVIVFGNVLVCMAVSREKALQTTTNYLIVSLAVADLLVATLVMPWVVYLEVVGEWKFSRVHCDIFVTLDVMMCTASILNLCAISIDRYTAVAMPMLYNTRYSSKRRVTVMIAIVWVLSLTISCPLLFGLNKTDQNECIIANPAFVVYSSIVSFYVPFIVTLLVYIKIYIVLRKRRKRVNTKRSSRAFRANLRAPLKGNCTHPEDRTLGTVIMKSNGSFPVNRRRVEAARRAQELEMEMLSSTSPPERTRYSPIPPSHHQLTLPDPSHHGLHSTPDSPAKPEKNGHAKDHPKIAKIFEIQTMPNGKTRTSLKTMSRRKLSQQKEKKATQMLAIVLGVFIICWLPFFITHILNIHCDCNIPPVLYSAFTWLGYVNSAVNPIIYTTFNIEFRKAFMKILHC
Sequence of D1 receptor (P18901 whole entry): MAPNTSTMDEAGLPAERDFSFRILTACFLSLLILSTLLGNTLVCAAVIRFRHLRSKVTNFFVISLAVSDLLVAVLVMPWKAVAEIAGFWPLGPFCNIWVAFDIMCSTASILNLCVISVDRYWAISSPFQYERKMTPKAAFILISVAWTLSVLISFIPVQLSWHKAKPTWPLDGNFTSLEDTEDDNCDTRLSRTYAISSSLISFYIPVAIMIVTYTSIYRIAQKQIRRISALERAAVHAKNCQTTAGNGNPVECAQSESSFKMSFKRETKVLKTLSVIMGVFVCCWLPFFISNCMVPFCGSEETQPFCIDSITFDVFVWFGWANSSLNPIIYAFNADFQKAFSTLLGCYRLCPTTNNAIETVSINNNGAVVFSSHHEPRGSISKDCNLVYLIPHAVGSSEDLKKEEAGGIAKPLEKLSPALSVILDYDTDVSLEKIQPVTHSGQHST
Sequence of D2 receptor (P61169 whole entry): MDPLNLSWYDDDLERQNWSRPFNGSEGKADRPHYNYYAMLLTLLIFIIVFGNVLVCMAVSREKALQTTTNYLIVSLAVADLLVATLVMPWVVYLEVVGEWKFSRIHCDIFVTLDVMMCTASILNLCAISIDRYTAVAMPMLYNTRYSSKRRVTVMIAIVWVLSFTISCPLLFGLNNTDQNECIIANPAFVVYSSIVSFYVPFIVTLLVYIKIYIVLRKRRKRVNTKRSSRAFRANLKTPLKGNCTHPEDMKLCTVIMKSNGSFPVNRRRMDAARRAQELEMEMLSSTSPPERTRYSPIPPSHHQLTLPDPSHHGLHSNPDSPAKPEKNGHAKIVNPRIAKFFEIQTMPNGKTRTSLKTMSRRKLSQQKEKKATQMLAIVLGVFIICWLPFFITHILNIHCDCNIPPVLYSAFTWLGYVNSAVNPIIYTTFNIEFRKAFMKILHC

D2 -like (REA) potency ratio (EC50 of Ref. A/EC50 of tested compound) [1]	D1 -like (RSA) potency ratio (EC50 of Ref. A/EC50 of tested compound) [2]	Ki (D1 receptor)	Ki (D2 receptor)	SMILES
5	5	–	–	CCCN(CCCCCCNCCc1ccc(C(N)=O)cc1)[C@H]1CCc2c(ccc(O)c2O)C1.Cl.Cl [Compound 37, (S)-N-propyl-N-[6-[2-(4-carbamoylphenyl)ethylamino]hexyl]-5,6-dihydroxy-1,2,3,4-tetrahydro-2-naphthylamine dihydrochloride]
10	33	–	–	CCCN(CCCCCCNCCc1ccc(NC(N)=O)cc1)[C@H]1CCc2c(ccc(O)c2O)C1.Cl.Cl [Compound 32, (S)-N-propyl-N-[6-[2-(4-aminocarbonylaminophenyl)ethylamino]hexyl]-5,6-dihydroxy-1,2,3,4-tetrahydro-2-naphthylamine dihydrochloride]
1.7	3	–	–	Br.Br.CCCN(CCCCCCNCCc1cc(O)cc(Cl)c1)[C@H]1CCc2c(ccc(O)c2O)C1 [Compound 21, (S)-N-propyl-N-[6-[2-(3-chloro-5-hydroxyphenyl)ethylamino]hexyl]-5,6-dihydroxy-1,2,3,4-tetrahydro-2-naphthylamine dihydrobromide]
–	–	69 nM	0.31 nM	CCCN(CCCCCCN1CCN(c2ccccc2OC)CC1)[C@H]1CCc2c(ccc(O)c2O)C1 [Compound 3, (S)-N-propyl-N-[6-[4-(2-methoxyphenyl)piperazin-1-yl]hexyl]-5,6-dihydroxy-1,2,3,4-tetrahydro-2-naphthylamine trihydrochloride]
1.7	50	–	–	CCCN(CCCCCCNCCc1ccc(O)c(N)c1)[C@H]1CCc2c(ccc(O)c2O)C1.Cl.Cl.Cl [Compound 29, (S)-N-propyl-N-[6-[2-(3-amino-4-hydroxyphenyl)ethylamino]hexyl]-5,6-dihydroxy-1,2,3,4-tetrahydro-2-naphthylamine trihydrochloride]
4	11	–	–	Br.Br.CCCN(CCCCCCNCCc1ccc2sc(=O)[nH]c2c1)[C@H]1CCc2c(ccc(O)c2O)C1 [Compound 19, (S)-N-propyl-N-[6-[2-(2-oxo-3H-1,3-benzothiazol-5-yl)ethylamino]hexyl]-5,6-dihydroxy-1,2,3,4-tetrahydro-2-naphthylamine dihydrobromide]
–	–	49 nM	0.66 nM	CCCN(CCCCCCNCC1COc2ccccc2O1)[C@H]1CCc2c(ccc(O)c2O)C1 (stereo partly drawn) [Compound 1, (S)-N-propyl-N-[6-[(1,4-benzodioxan-2-yl)methylamino]hexyl]-5,6-dihydroxy-1,2,3,4-tetrahydro-2-naphthylamine dihydrochloride]
4	25	–	–	CCCN(CCCCCCNCCc1ccc(OC)c(O)c1)[C@H]1CCc2c(ccc(O)c2O)C1.Cl.Cl [Compound 27, (S)-N-propyl-N-[6-[2-(3-hydroxy-4-methoxyphenyl)ethylamino]hexyl]-5,6-dihydroxy-1,2,3,4-tetrahydro-2-naphthylamine dihydrochloride]
12	4.5	–	–	CCCN(CCCCCCNCCc1ccc(CO)cc1)[C@H]1CCc2c(ccc(O)c2O)C1.Cl.Cl [Compound 36, (S)-N-propyl-N-[6-[2-(4-hydroxymethylphenyl)ethylamino]hexyl]-5,6-dihydroxy-1,2,3,4-tetrahydro-2-naphthylamine dihydrochloride]
4	25	–	–	Br.Br.CCCN(CCCCCCNCCc1ccc(O)c(Cl)c1)[C@H]1CCc2c(ccc(O)c2O)C1 [Compound 11, (S)-N-propyl-N-[6-[2-(3-chloro-4-hydroxyphenyl)ethylamino]hexyl]-5,6-dihydroxy-1,2,3,4-tetrahydro-2-naphthylamine dihydrobromide]
5	5	–	–	CCCN(CCCCCCNCCc1ccc(NC(C)=O)cc1)[C@H]1CCc2c(ccc(O)c2O)C1.Cl.Cl [Compound 33, (S)-N-propyl-N-[6-[2-(4-acetylaminophenyl)ethylamino]hexyl]-5,6-dihydroxy-1,2,3,4-tetrahydro-2-naphthylamine dihydrochloride]
0.4	2	–	–	CCCN(CCCCCCNCCc1ccc(C(=O)OC)cc1)[C@H]1CCc2c(ccc(O)c2O)C1.Cl.Cl [Compound 35, (S)-N-propyl-N-[6-[2-(4-methoxycarbonylphenyl)ethylamino]hexyl]-5,6-dihydroxy-1,2,3,4-tetrahydro-2-naphthylamine dihydrochloride]
10	33	–	–	CCCN(CCCCCCNCCc1ccc(O)c(OC)c1)[C@H]1CCc2c(ccc(O)c2O)C1.Cl.Cl [Compound 26, (S)-N-propyl-N-[6-[2-(3-methoxy-4-hydroxyphenyl)ethylamino]hexyl]-5,6-dihydroxy-1,2,3,4-tetrahydro-2-naphthylamine dihydrochloride]
–	5	–	–	Br.Br.CCCN(CCCCCCNCCc1ccc(O)c([N+](=O)[O-])c1)[C@H]1CCc2c(ccc(O)c2O)C1 [Compound 12, (S)-N-propyl-N-[6-[2-(3-nitro-4-hydroxyphenyl)ethylamino]hexyl]-5,6-dihydroxy-1,2,3,4-tetrahydro-2-naphthylamine dihydrobromide]
5	100	–	–	CCCN(CCCCCCNCCc1ccc(NS(C)(=O)=O)cc1)[C@H]1CCc2c(ccc(O)c2O)C1.Cl.Cl [Compound 31, (S)-N-propyl-N-[6-[2-(4-methylsulphonylaminophenyl)ethylamino]hexyl]-5,6-dihydroxy-1,2,3,4-tetrahydro-2-naphthylamine dihydrochloride]
5	50	–	–	Br.Br.CCCN(CCCCCCNCCc1ccc2[nH]c(=O)sc2c1)[C@H]1CCc2c(ccc(O)c2O)C1 [Compound 18, (S)-N-propyl-N-[6-[2-(2-oxo-3H-1,3-benzothiazol-6-yl)ethylamino]hexyl]-5,6-dihydroxy-1,2,3,4-tetrahydro-2-naphthylamine dihydrobromide]
25	12	–	–	Br.Br.CCCN(CCCCCCNCCc1cc(O)c(C)c(O)c1)[C@H]1CCc2c(ccc(O)c2O)C1 [Compound 17, (S)-N-propyl-N-[6-[2-(3,5-dihydroxy-4-methylphenyl)ethylamino]hexyl]-5,6-dihydroxy-1,2,3,4-tetrahydro-2-naphthylamine dihydrobromide]
3	14	–	–	CCCN(CCCCCCNCCc1ccc2nc(N)sc2c1)[C@H]1CCc2c(ccc(O)c2O)C1.Cl.Cl.Cl [Compound 40, (S)-N-propyl-N-[6-[2-(2-amino-1,3-benzothiazol-6-yl)ethylamino]hexyl]-5,6-dihydroxy-1,2,3,4-tetrahydro-2-naphthylamine trihydrochloride]
3	2.5	–	–	CCCN(CCCCCCNCCc1ccc(S(=O)(=O)O)cc1)[C@H]1CCc2c(ccc(O)c2O)C1.Cl.Cl [Compound 39, (S)-N-propyl-N-[6-[2-(4-sulphophenyl)ethylamino]hexyl]-5,6-dihydroxy-1,2,3,4-tetrahydro-2-naphthylamine dihydrochloride]
3	33	–	–	Br.Br.CCCN(CCCCCCNCCc1ccc(O)c(C)c1)[C@H]1CCc2c(ccc(O)c2O)C1 [Compound 14, (S)-N-propyl-N-[6-[2-(3-methyl-4-hydroxyphenyl)ethylamino]hexyl]-5,6-dihydroxy-1,2,3,4-tetrahydro-2-naphthylamine dihydrobromide]
